Reference: a melting point compilation (Tetko et al.; mined from patent text by program, amines drawn as free bases though some values may be those of a salt)

Structure (SMILES)	melting point [°C]
O=C1N(CCCCl)c2ccccc2C12COc1cc3c(cc12)OCO3 (stereo unspecified)	144 to 146
CC(NC(=O)C(N)Cc1ccccc1)C(N)=O (stereo unspecified)	95 to 97
CC1(C)Oc2cccc(S(N)(=O)=O)c2O1	100 to 112
CCn1c(=O)c2[nH]c(/C=C/c3cccc(Br)c3)nc2n(CC)c1=O	> 270
Fc1ccc(C2=C(c3ccccc3)N(C(F)(F)F)CO2)cc1F	146 to 148
COCc1nc2c(C(F)(F)F)cccc2c(=O)o1	104 to 106
c1ccc(C23CC(C2)C3)cc1	64 to 65
O=C1CC(=O)N(c2ccccc2)c2ccccc2N1NCCC1C2CC3CC(C2)CC1C3 (stereo unspecified)	196 to 197
Cc1ccc(S(=O)(=O)OCC2(C)Cc3cc(Cl)cc(OS(=O)(=O)C(F)(F)F)c3O2)cc1 (stereo unspecified)	100 to 102
COc1ccc(NC(=O)c2ccc(F)c(F)c2)cc1NS(=O)(=O)CCl	191 to 193
O=C1c2ccccc2C(=O)N1Cc1cnc2n1-c1ccc(Cl)cc1C(c1ccccc1Cl)=NC2	218 to 220
CCOC(=O)CC(=O)NC(Cc1ccccc1)C(C)=O (stereo unspecified)	68 to 69
C=CCn1c(=O)n(CCN2CCN(c3ccccc3OC)CC2)c(=O)c2cscc21	131 to 132
CCN(CC)c1ccc(C(c2ccc(N(C)C)cc2)c2ccc(N(C)C)cc2)c(O)c1	94 to 95
COCc1cnc2c(NC(=O)c3c(Cl)cccc3Cl)cccc2c1-n1ccnc1	145 to 150
CC(C)N1CC(CN(C)C)N(C)c2ccccc2C1=O (stereo unspecified)	93 to 95
COc1cc(C#Cc2cc(OC)c(OC(C)C)cc2OC(=O)CI)ccc1OC(C)C	127 to 128
C#CC1(COC(C)=O)OC(n2ccc(=O)[nH]c2=O)C(OC(C)=O)C1OC(C)=O (stereo unspecified)	160 to 162
CCOC(Cl)(Cl)C1OC(=C(Cl)Cl)c2cc(C(=O)O)ccc2O1 (stereo unspecified)	121 to 122
COc1ccc(N2CCN(c3c(C)c(C)c4c(c3C)C(N3CCCCCC3)C(C)(C)O4)CC2)cc1 (stereo unspecified)	127 to 128
O=C(O)CCc1cc2ccccc2n1S(=O)(=O)c1ccccc1	180 to 185
Cc1c(NCCCNCC(O)COc2ccccc2)n(C)c(=O)n(C)c1=O (stereo unspecified)	132 to 133
CN(C)c1ccc(C2SCC(C(=O)O)N2C(=O)OC(C)(C)C)cc1 (mixture of isomers)	175
CC(C)(C)c1ccc(OS(C)(=O)=O)c(C(C)(C)C)c1	63
COc1c(Br)c(-c2ccc(C(C)(C)C)s2)cc2oc(=O)c(C)c(C)c12	170
COC(=O)c1cn(Cc2ccc(OCc3nc(-c4ccccc4)oc3C)cc2)nc1C(C)C	90 to 91
Cc1cc2c(Cl)ccc(-n3c(=O)cc(C(F)(F)F)n(C)c3=O)c2o1	206 to 207
CC(=O)Oc1c(C)nc(N)nc1C(C)C	141 to 142

Further lines, results first:

melting point [°C]	Structure (SMILES)
164 to 165	Cc1c(Cl)ccc([N+](=O)[O-])c1N
214 to 221	CN(C)C(=O)Nc1c(C(=O)c2cccc(Cl)c2)[nH]c2cc(Cl)ccc12
175 to 177	Cc1cccc2c1N(C(=O)OC(C)(C)C)CC(=O)N2
122 to 124	CC(C)(O)COc1c(-c2ccc(S(C)(=O)=O)cc2)cnn(-c2ccc(F)c(Cl)c2)c1=O
96	CCc1nc(N)nc(NC(CC)COCc2ccc(F)cc2)n1 (stereo unspecified)
167 to 168	COC(=O)C(c1cccc(Br)c1)c1ncnc2cc(OC)c(OC)cc12 (stereo unspecified)
75 to 77	O=CC=C(c1ccccc1F)c1ccccc1F
154 to 155	Cc1cccc(C(O)COc2ccc(CC3SC(=O)NC3=O)cc2)n1 (stereo unspecified)
160 to 162	Cc1c(SCCCCSCCn2c([N+](=O)[O-])cnc2C)ccnc1CSc1nc2ccccc2[nH]1
128 to 129	COC(C)=Nc1cccc(O)n1
160 to 162	CN(C)c1cccc2c(S(=O)(=O)Nc3ccc(Cl)cn3)cccc12
219	CCOC(=O)c1c(Cl)c2cnccc2[nH]c1=O
123 to 124	CC(C)OP(=O)(OC(C)C)c1nc(N)nc(P(=O)(OC(C)C)OC(C)C)n1
110	c1ccc(-n2nnc3ccc(Cn4ccnc4)cc32)cc1
105 to 108	Cc1cc(C)nc(NC(=O)N(C)C)c1
116 to 119	C=CCOc1ccccc1-c1nc2c(CCC)nn(C)c2c(=O)[nH]1
97 to 99	Cn1c(C(F)(F)F)cc(=O)n(-c2cc(OC=O)c(Cl)cc2F)c1=O
220 to 222	CC(=C1SC(=O)NC1=O)c1ccc(OCCOc2c(-c3ccc(F)cc3)n(C)c3ccccc3c2=O)c(F)c1
215 to 217	Cc1ccc(-c2ccc3c(c2)C=C(C(=O)Nc2ccc(C(O)c4ccccn4)cc2)CCO3)cc1 (stereo unspecified)
212 to 213	CCCCCCCC(=O)N1CCN(c2ccc3c(c2)N2CCN=C2C(c2ccccc2)=[N+]3[O-])CC1
300 to 302	CC(=O)Nc1cccc(-c2[nH]c3cccc4c3c2CCNC4=O)c1
80 to 83	CCCc1c(OCCCCCC(=O)NCCc2ccncc2)ccc(C(C)=O)c1O

melting point [°C]	Structure (SMILES)
137	CCCCCCCCCCOc1ccc(NC(=O)c2ccc(O)cc2)cc1OCCCCCCCCCC
45.9 to 50.8	CCCCCCCCCCCCCCCCC[C@@H]1OC[C@@H](COCCCCCCCCOS(=O)(=O)c2ccc(C)cc2)O1 (relative stereo)
252 to 255	CCOC(=O)c1nc2cc(NC(=O)c3c(C(=O)N4CCC4)cnn3C)ccn2n1
188 to 189	O=C(N[C@H](Cc1ccc(C(F)(F)F)cc1)[C@@H](O)c1ccc(Cl)nc1)c1ccc(F)c2ccccc12 (racemic)
148 to 149	CC1(C)CC(=C(c2ccc(O)cc2)c2ccc(I)cc2)CC(C)(C)C1
124	C#CCC(O)(Cn1cncn1)c1ccc(Oc2ccc(Cl)cc2)cc1Cl (stereo unspecified)
99 to 104	CC(C)C[C@H](NC(=O)c1ccccc1Cl)C(=O)N[C@@H](C(C)C)[C@@H](O)c1c(-c2ccccc2)c1=O
162 to 165	Cc1ncc(CN2CCN(CCc3ccccc3)CC2)c(N)n1
73 to 75	CC(C)C[N+]([O-])=Cc1ccccc1
62 to 64.5	Cc1c(C)c2c(c(C)c1O)SC(C)(C)O2
101	CN1CCC(C(=O)N(C)C)C(c2cccc(F)c2)C1 (stereo unspecified)
100 to 101	O=C(c1ccc(Cl)cc1)c1nccc2ccccc12
54 to 56	CC(C)N(CCSc1ccc(Cl)cc1)C(=O)Oc1ccccc1
167 to 168	O=c1n(-c2ccccc2)nc2c3ccccc3nc(Cl)n12
61 to 62	CCCCC(=O)Nc1c(C(=O)OC)cccc1[N+](=O)[O-]
120 to 123	CCc1c(C)n(C)c2ccc(NC(=O)Nc3ccccn3)cc12
100 to 101	O=S(=O)(Cl)c1ccc2ccc(Br)cc2c1
83 to 86	CC(C)OCc1cnc2c([N+](=O)[O-])cccc2c1Cl
73 to 76	CC=CC(=O)Oc1ccc(Nc2ccccc2)cc1
132 to 134	CCOC(=O)N1CCN(c2nc(N)ccc2[N+](=O)[O-])CC1
47 to 50	CC(C)(C)c1ccc(Oc2nc(Nc3cccc(CO)c3)nc(Oc3ccccc3)n2)cc1
